The test system of assay [1] is arrhythmic cardiac microtissues (hiPSC-CM, cell line 1). Nature of the assay: Anti-arrhythmic drug testing on arrhythmic cardiac microtissues (optical mapping).
Assay [2] concerns cardiac microtissues (hiPSC-CMs and human cardiac fibroblasts). As to the kind of experiment: Arrhythmia induction in 3D cardiac microtissues (brightfield beat rate, optical mapping, stimulation capture). Format: cell-based. To be noted: for presence of arrhythmias at endpoint: N=3. The method, then: (§1) Tissues were allowed to compact for 7 days (Day -7 to 0) and treatment with either arrhythmogenic or control media conditions began on day 8 post-seeding (e.g. Day 0 in FIG. 1A). Arrhythmogenic media consisted of DMEM no glucose (ThermoFisher; 11966025), B-27 minus insulin supplement (1×; ThermoFisher; A1895602), HEPES (10 mM), L-carnitine (2 mM), creatine (5 mM), taurine (5 mM), MEM non-essential amino acids ([…]; ThermoFisher; 11140050), insulin-transferrin-selenium (1×; ThermoFisher; 41400045), galactose (10 mM), MBCD or MBCD-conjugated FAs as follows: hiPSC-CMs were treated with 100 μM FAs (linoleic acid 40 μM, oleic acid 40 μM, and palmitic acid 20 μM; MBCD 0.8 mM); and hESC-CMs were treated with 200 μM FAs (linoleic acid 80 μM, oleic acid 80 μM, and palmitic acid 40 μM; MBCD 1.6 mM)), glutamine (1 mM), and antibiotic-antimycotic. […] Instead, control media were supplemented with glucose (5 mM) and either FA vehicles (MBCD) at a lower dose of MBCD than the arrhythmogenic media (0.5 mM) or no MBCD (to confirm MBCD was the arrhythmogenic agent). Microtissues were treated by addition of media containing the components described above for up to 5 days and analyzed (e.g., imaging, tissue harvesting for isolation of RNA for transcriptomic analysis, fixing tissues for histopathological assessments/staining) at different time points to assess functional and transcriptomic parameters (see FIG. 1A).
During contractile force measurements, cardiac microtissues were electrically stimulated at 1 Hz and at their respective excitation threshold and videos of the 1:30 PDMS rods were taken for 15 seconds under 10× magnification with a Leica EC3 camera. For tissue compaction and spontaneous beating rate measurements, the tissues were not stimulated.
To assess the range of stimulation capture, microtissues were stimulated by a silver electrode at 3 Hz and 6V, and the distance from the electrode to which point the cardiac microtissue was not electrically captured by the delivered electrical impulse was marked as the range of stimulation capture (mm) (e.g., see FIG. 1H).

Assay [3] concerns 5-day arrhythmic cardiac microtissues. As to the kind of experiment: Arrhythmia reversal by removal of MBCD from media. Format: cell-based, human. To be noted: 5 days arrhythmogenic media. The method, then: as §1
Finally, it was reasoned that if MBCD was causing arrhythmias, removal of MBCD from culture media could reverse arrhythmias. To test this, 5-day arrhythmogenic tissues were cultured in control media for 5 additional days (see FIG. 6A). […] Arrhythmic tissues progressively regained synchronicity, allowing for the measurement of beat frequency.

Where [4] appears, read: isoproterenol added to lidocaine-treated arrhythmic tissues.
Setting [5] is: arrhythmic tissues, acute treatment 30 min, lidocaine 17.5 μg/mL.

Where a name gives a salt, the structure may show the parent alone.

We go through 6 compounds from patent US20220251517A1.

With `CCCCc1oc2ccccc2c1C(=O)c1cc(I)c(OCCN(CC)CC)c(I)c1` [amiodarone, Amiodarone], the “electrophysiological changes (wavefronts per frame, conduction velocity, cycle length)” value in assay [1] (arrhythmic tissues, acute treatment 30 min, flecainide 10 μM, propranolol 4 μg/mL, amiodarone 30 μg/mL) is listed as “did not produce any significant electrophysiological changes”.
`O=C[C@H](O)[C@@H](O)[C@@H](O)[C@H](O)CO` [galactose]: the “presence of arrhythmias at endpoint” value in assay [2] (media containing only galactose (10 mM), no MBCD) is “did not become arrhythmic”.
For `CC(C)NCC(O)c1ccc(O)c(O)c1` (stereo not drawn) [isoproterenol], in assay [1] (setting [4]), the conduction velocity entry is given as “increase”, the cycle length entry is listed as “reduction” and the “mean wavefronts per frame” value is listed as “no change”.
In the case of `CCN(CC)CC(=O)Nc1c(C)cccc1C` [lidocaine, Lidocaine HCl], in assay [1] (setting [5]), the conduction velocity result was “significantly decreased”, the cycle length duration entry is on record as “increasing” and the “mean number of wavefronts per frame” value is given as “significant reduction”.
“BSA-ligated fatty acids: BSA-ligated fatty acids used in place of MBCD-conjugated fatty acids”: the induction of arrhythmogenesis entry in assay [2] (BSA-ligated fatty acids instead of MBCD-conjugated fatty acids) is “no effect”.
For the compound methyl-β-cyclodextrin [MBCD], in assay [3] (then 5 days control media), the “Cx43 and N-Cad expression and co-localization after arrhythmia reversal” value is on record as “significant increase”; the “passive force after arrhythmia reversal” value is given as “without significant changes”; the “synchronicity after removal of MBCD” value is recorded as “started beating synchronously”. The “contractile force of reverted tissues relative to age matched control tissues” value in assay [3] (then control media, plateau, p<0.0001) is listed as approximately 50%. In assay [2] (low MBCD concentration 0.5 mM (control media), 5 days), the development of arrhythmias result was “did not develop arrhythmias”. Also, the “presence of arrhythmias at endpoint” value in assay [2] (media containing both MBCD and glucose (5mM), 5 days) is “arrhythmias were also induced”.
